# Test results from patent US20120083522A1, “MODULATION OF INFLAMMATORY RESPONSES BY FACTOR XI” (Isis Pharmaceuitcals, inc., priority 2009, published 2012).
# In the oligonucleotide strings, read from the 5' end, every base follows the letter of its sugar. An asterisk marks phosphorothioate; unmarked linkages are phosphodiester. Other units and linkages are bracketed, terminal groups are in braces. A string of capitals states the bases alone. e = 2'-O-(2-methoxyethyl) (MOE); [5mC] = 5-methylcytosine; d = 2'-deoxy (DNA)
# Key:
# [1] = test system: human Factor XI mRNA; assay: Dose-dependent inhibition in HepG2 cells, lipofectin (Example 4); type: cell-based; settings: 16 hours
# Description: (§1) Cells were plated at a density of 10,000 cells per well and transfected using lipofectin reagent with 9.375 nM, 18.75 nM, 37.5 nM and 75 nM concentrations of antisense oligonucleotide, as specified in Table 9. After a treatment period of approximately 16 hours, RNA was isolated from the cells and Factor XI mRNA levels were measured by quantitative real-time PCR. Human Factor XI primer probe set RTS 2966 was used to measure mRNA levels. Factor XI mRNA levels were adjusted according to total RNA content, as measured by RIBOGREEN®. Results are presented as percent inhibition of Factor XI, relative to untreated control cells.
# [2] = test system: human Factor XI mRNA; assay: Antisense inhibition in HepG2 cells by microwalk gapmers, 75 nM, lipofectin (Example 3); type: cell-based; settings: HepG2 cells, 75 nM
# Procedure, shortened: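 HepG2 cells (10,000 per well) were transfected with 75 nM gapmer using lipofectin and treated for about 24 h. Factor XI mRNA was quantified by real-time PCR, normalized to RiboGreen total RNA and expressed as percent inhibition versus untreated controls.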
# [3] = test system: human Factor XI mRNA; assay: Dose-dependent inhibition in HepG2 cells, electroporation (Example 4); type: cell-based; settings: 16 hours
# Description: as §1, with “The gapmers were also transfected via electroporation and their dose dependent inhibition of human Factor XI mRNA was measured. Cells” for “Cells”, “20,000” for “10,000”, “via electroporation” for “using lipofectin reagent”, “0.7 μM, 2.2 μM, 6.7 μM,” for “9.375 nM, 18.75 nM, 37.5 nM”, “20 μM” for “75 nM”, “10.” for “9.”
# [4] = test system: Factor XI protein; assay: Cynomolgus monkeys: plasma Factor XI protein ELISA (Example 29); type: in vivo; settings: escalating doses 5, 10, 25 mg/kg s.c.
# Description: (§2) Groups, each consisting of two male and three female monkeys, were injected subcutaneously with ISIS 416838, ISIS 416850, ISIS 416858, ISIS 416864, or ISIS 417002 in escalating doses. Antisense oligonucleotide was administered to the monkeys at 5 mg/kg three times per a week for week 1; 5 mg/kg twice per week for weeks 2 and 3; 10 mg/kg three times per week for week 4; 10 mg/kg twice per week for weeks 5 and 6; 25 mg/kg three times per week for week 7; and 25 mg/kg twice per week for weeks 8, 9, 10, 11, and 12. One control group, consisting of two male and three female monkeys, was injected subcutaneously with PBS according to the same dosing regimen. An additional experimental group, consisting of two male and three female monkeys, was injected subcutaneously with ISIS 416850 in a chronic, lower dose regimen. Antisense oligonucleotide was administered to the monkeys at 5 mg/kg three times per week for week 1; 5 mg/kg twice per week for week 2 and 3; 10 mg/kg three times per week for week 4; and 10 mg/kg twice per week for weeks 5 to 12. Body weights were measured weekly. Blood samples were collected 14 days and 5 days before the start of treatment and subsequently once per week for Factor XI protein activity analysis in plasma and measurement of various hematologic factors. On day 85, the monkeys were euthanized by exsanguination while under deep anesthesia, and organs harvested for further analysis.
# Plasma samples from all monkey groups taken on different days were analyzed by a sandwich-style ELISA assay (Affinity Biologicals Inc.) using an affinity-purified polyclonal anti-Factor XI antibody as the capture antibody and a peroxidase-conjugated polyclonal anti-Factor XI antibody as the detecting antibody. Monkey plasma was diluted 1:50 for the assay. Peroxidase activity was expressed by incubation with the substrate o-phenylenediamine. The color produced was quantified using a microplate reader at 490 nm and was considered to be proportional to the concentration of Factor XI in the samples.
# The results are presented in Table 122, expressed as percentage reduction relative to that of the PBS control.
# [5] = Cynomolgus monkeys: hematology assays (Example 29); type: in vivo
# Description: as §2
# The ISIS oligonucleotide, ISIS 416850, given with the chronic dose regimen is distinguished from the other oligonucleotides with an asterisk (*).
# [6] = Cynomolgus monkeys: body and organ weights (Example 29); type: in vivo; settings: for Body weight: escalating doses 5, 10, 25 mg/kg s.c.
# Description: as §2
# Body weights were taken once weekly throughout the dosing regimen. […] Organ weights were taken after the animals were euthanized and livers, kidneys and spleens were harvested and weighed. […] The ISIS oligonucleotide, ISIS 416850, given with the chronic dose regimen is distinguished from the other oligonucleotides with an asterisk (*).
# [7] = oligonucleotides targeted to nucleobases 1018 to 1042 of SEQ ID NO: 1
# [8] = oligonucleotides targeted to nucleobases 1062 to 1091 of SEQ ID NO: 1
substance,measurement,setting,value
416984 (antisense e[5mC]*eA*dA*d[5mC]*d[5mC]*dG*dG*dG*dA*dT*dG*dA*dT*dG*dA*eG*eT*eG*e[5mC]*eA) [compound 416984],"percent inhibition of Factor XI mRNA, relative to untreated control cells",[1]; 9.375 nM,26%
same,"percent inhibition of Factor XI mRNA, relative to untreated control cells",[1]; 18.75 nM,50%
same,"percent inhibition of Factor XI mRNA, relative to untreated control cells",[1]; 37.5 nM,62%
same,"percent inhibition of Factor XI mRNA, relative to untreated control cells",[1]; 75 nM,81%
same,% inhibition of human Factor XI mRNA levels,[2]; [7],89%
same,"percent inhibition of Factor XI mRNA, relative to untreated control cells",[3]; 0.7 μM,43%
same,"percent inhibition of Factor XI mRNA, relative to untreated control cells",[3]; 2.2 μM,54%
same,"percent inhibition of Factor XI mRNA, relative to untreated control cells",[3]; 6.7 μM,88%
same,"percent inhibition of Factor XI mRNA, relative to untreated control cells",[3]; 20 μM,90%
416985 (antisense eG*e[5mC]*dA*dA*d[5mC]*d[5mC]*dG*dG*dG*dA*dT*dG*dA*dT*dG*eA*eG*eT*eG*e[5mC]) [compound 416985],"percent inhibition of Factor XI mRNA, relative to untreated control cells",[1]; 9.375 nM,17%
same,"percent inhibition of Factor XI mRNA, relative to untreated control cells",[1]; 18.75 nM,30%
same,"percent inhibition of Factor XI mRNA, relative to untreated control cells",[1]; 37.5 nM,47%
same,"percent inhibition of Factor XI mRNA, relative to untreated control cells",[1]; 75 nM,57%
same,% inhibition of human Factor XI mRNA levels,[2]; [7],88%
same,"percent inhibition of Factor XI mRNA, relative to untreated control cells",[3]; 0.7 μM,12%
same,"percent inhibition of Factor XI mRNA, relative to untreated control cells",[3]; 2.2 μM,48%
same,"percent inhibition of Factor XI mRNA, relative to untreated control cells",[3]; 6.7 μM,45%
same,"percent inhibition of Factor XI mRNA, relative to untreated control cells",[3]; 20 μM,69%
416989 (antisense eG*eA*dG*dA*dT*dT*d[5mC]*dT*dT*dT*dG*dG*dG*d[5mC]*d[5mC]*eA*eT*eT*e[5mC]*e[5mC]) [compound 416989],"percent inhibition of Factor XI mRNA, relative to untreated control cells",[1]; 9.375 nM,18%
same,"percent inhibition of Factor XI mRNA, relative to untreated control cells",[1]; 18.75 nM,41%
same,"percent inhibition of Factor XI mRNA, relative to untreated control cells",[1]; 37.5 nM,62%
same,"percent inhibition of Factor XI mRNA, relative to untreated control cells",[1]; 75 nM,83%
same,% inhibition of human Factor XI mRNA levels,[2]; [8],88%
same,"percent inhibition of Factor XI mRNA, relative to untreated control cells",[3]; 0.7 μM,32%
same,"percent inhibition of Factor XI mRNA, relative to untreated control cells",[3]; 2.2 μM,65%
same,"percent inhibition of Factor XI mRNA, relative to untreated control cells",[3]; 6.7 μM,88%
same,"percent inhibition of Factor XI mRNA, relative to untreated control cells",[3]; 20 μM,94%
416993 (antisense e[5mC]*eT*dT*dT*dG*dA*dG*dA*dT*dT*d[5mC]*dT*dT*dT*dG*eG*eG*e[5mC]*e[5mC]*eA) [compound 416993],"percent inhibition of Factor XI mRNA, relative to untreated control cells",[1]; 9.375 nM,15%
same,"percent inhibition of Factor XI mRNA, relative to untreated control cells",[1]; 18.75 nM,37%
same,"percent inhibition of Factor XI mRNA, relative to untreated control cells",[1]; 37.5 nM,50%
same,"percent inhibition of Factor XI mRNA, relative to untreated control cells",[1]; 75 nM,68%
same,% inhibition of human Factor XI mRNA levels,[2]; [8],91%
same,"percent inhibition of Factor XI mRNA, relative to untreated control cells",[3]; 0.7 μM,22%
same,"percent inhibition of Factor XI mRNA, relative to untreated control cells",[3]; 2.2 μM,48%
same,"percent inhibition of Factor XI mRNA, relative to untreated control cells",[3]; 6.7 μM,87%
same,"percent inhibition of Factor XI mRNA, relative to untreated control cells",[3]; 20 μM,92%
417000 (antisense eT*eG*d[5mC]*dA*d[5mC]*dA*dG*dT*dT*dT*d[5mC]*dT*dG*dG*d[5mC]*eA*eG*eG*e[5mC]*e[5mC]) [compound 417000],"percent inhibition of Factor XI mRNA, relative to untreated control cells",[1]; 9.375 nM,35%
same,"percent inhibition of Factor XI mRNA, relative to untreated control cells",[1]; 18.75 nM,47%
same,"percent inhibition of Factor XI mRNA, relative to untreated control cells",[1]; 37.5 nM,58%
same,"percent inhibition of Factor XI mRNA, relative to untreated control cells",[1]; 75 nM,70%
same,% inhibition of human Factor XI mRNA levels,[2]; oligonucleotides targeted to nucleobases 1275 to 1318 of SEQ ID NO: 1,89%
same,"percent inhibition of Factor XI mRNA, relative to untreated control cells",[3]; 0.7 μM,46%
same,"percent inhibition of Factor XI mRNA, relative to untreated control cells",[3]; 2.2 μM,73%
same,"percent inhibition of Factor XI mRNA, relative to untreated control cells",[3]; 6.7 μM,76%
same,"percent inhibition of Factor XI mRNA, relative to untreated control cells",[3]; 20 μM,89%
ISIS 416838: gapmer of Table 6 (antisense eG*e[5mC]*eA*eA*e[5mC]*d[5mC]*dG*dG*dG*dA*dT*dG*dA*dT*dG*eA*eG*eT*eG*e[5mC]),Inhibition of Factor XI protein relative to the PBS control,[4]; day 8,3%
same,Inhibition of Factor XI protein relative to the PBS control,[4]; day 15,4%
same,Inhibition of Factor XI protein relative to the PBS control,[4]; day 22,5%
same,Inhibition of Factor XI protein relative to the PBS control,[4]; day 29,8%
same,Inhibition of Factor XI protein relative to the PBS control,[4]; day 36,11%
same,Inhibition of Factor XI protein relative to the PBS control,[4]; day 43,5%
same,Inhibition of Factor XI protein relative to the PBS control,[4]; day 50,8%
same,Inhibition of Factor XI protein relative to the PBS control,[4]; day 57,10%
same,Inhibition of Factor XI protein relative to the PBS control,[4]; day 64,11%
same,Inhibition of Factor XI protein relative to the PBS control,[4]; day 71,12%
same,Inhibition of Factor XI protein relative to the PBS control,[4]; day 78,10%
same,Inhibition of Factor XI protein relative to the PBS control,[4]; day 85,10%
same,Inhibition of Factor XI protein relative to the PBS control,[4]; day −5 (before treatment),0%
same,Inhibition of Factor XI protein relative to the PBS control,[4]; day −14 (before treatment),0%
same,platelet count,[5]; day 8,387000 µL⁻¹
same,platelet count,[5]; day 15,387000 µL⁻¹
same,platelet count,[5]; day 22,319000 µL⁻¹
same,platelet count,[5]; day 29,337000 µL⁻¹
same,platelet count,[5]; day 36,370000 µL⁻¹
same,platelet count,[5]; day 43,365000 µL⁻¹
same,platelet count,[5]; day 50,372000 µL⁻¹
same,platelet count,[5]; day 57,371000 µL⁻¹
same,platelet count,[5]; day 64,358000 µL⁻¹
same,platelet count,[5]; day 71,365000 µL⁻¹
same,platelet count,[5]; day 78,348000 µL⁻¹
same,platelet count,[5]; day 85,344000 µL⁻¹
same,platelet count,[5]; day −5,425000 µL⁻¹
same,platelet count,[5]; day −14,377000 µL⁻¹
same,Kidney weight,[6]; after euthanasia,12 g
same,Liver weight,[6]; after euthanasia,63 g
same,Spleen weight,[6]; after euthanasia,5 g
same,Body weight,[6]; day 1,2720 g
same,Body weight,[6]; day 8,2592 g
same,Body weight,[6]; day 15,2642 g
same,Body weight,[6]; day 22,2702 g
same,Body weight,[6]; day 29,2689 g
same,Body weight,[6]; day 36,2708 g
same,Body weight,[6]; day 43,2700 g
same,Body weight,[6]; day 50,2731 g
same,Body weight,[6]; day 57,2737 g
same,Body weight,[6]; day 64,2746 g
same,Body weight,[6]; day 71,2869 g
same,Body weight,[6]; day 78,2766 g
